Test results as given in PMC8906456, “Structural insights into the catalytic and inhibitory mechanisms of the flavin transferase FmnB in Listeria monocytogenes” (MedComm, 2022).

target: T1, FmnB (Listeria monocytogenes, UniProt A0A0H3GJF7); test: inhibition of PplA FMNylation, in-gel flavin fluorescence; type: biochemical; details: 10 uM to 4 mM inhibitor; 100 uM FAD, 50 uM PplA, 15 mM Mg2+, 16 °C; competitive
T1 construct: gene LMRG_02181; structure covers about residues 36-357
T1 sequence (A0A0H3GJF7 20-360): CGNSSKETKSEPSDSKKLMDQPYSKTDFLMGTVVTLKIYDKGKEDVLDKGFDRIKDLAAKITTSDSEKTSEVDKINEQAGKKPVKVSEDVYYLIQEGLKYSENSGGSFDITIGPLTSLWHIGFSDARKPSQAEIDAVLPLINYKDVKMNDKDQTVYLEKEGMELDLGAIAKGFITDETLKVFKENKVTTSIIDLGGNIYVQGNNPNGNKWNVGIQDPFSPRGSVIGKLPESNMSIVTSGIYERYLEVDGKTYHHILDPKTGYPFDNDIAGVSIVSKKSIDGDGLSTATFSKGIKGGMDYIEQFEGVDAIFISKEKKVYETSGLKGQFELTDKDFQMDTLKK

Row | SMILES | inhibition of PplA FMNylation, in-gel flavin fluorescence
1 | Nc1ncnc2c1ncn2[C@@H]1O[C@H](COP(=O)(O)OP(=O)(O)O)[C@@H](O)[C@H]1O [ADP] | ADP demonstrated a much stronger inhibitory ability against FmnB activity (Figure 4A)
2 | Nc1ncnc2c1ncn2[C@@H]1O[C@H](COP(=O)(O)O)[C@@H](O)[C@H]1O [AMP] | the enzymatic assays indicated that AMP, ADP and ATP could inhibit FmnB activity
3 | Nc1ncnc2c1ncn2[C@@H]1O[C@H](COP(=O)(O)OP(=O)(O)OP(=O)(O)O)[C@@H](O)[C@H]1O [ATP] | the enzymatic assays indicated that AMP, ADP and ATP could inhibit FmnB activity
